Activity data for seven compounds are collected here from ChEMBL document CHEMBL3351474, “Ambidalmines A-E and ambidimerine F: bioactive dihydrobenzophenanthridine alkaloids from Corydalis ambigua var. amurensis” (2014).

What all share (assay type): functional
Assay [1] has as its system H9c2. In words: Cytoprotective activity against ischemia-hypoxia injury in rat H9c2 cells assessed as increase in cell viability at 1 uM by MTT assay relative to control. Background: Formazan colour is commonly taken as a measure of viable cells.
Assay [2] has as its system H9c2. In words: Cytoprotective activity against ischemia-hypoxia injury in rat H9c2 cells assessed as increase in cell viability at 0.1 uM by MTT assay relative to control.
The test system of assay [3] is H9c2. Description: Cytoprotective activity against ischemia-hypoxia injury in rat H9c2 cells assessed as increase in cell viability at 10 uM by MTT assay relative to control.
Assay [4] has as its system H9c2. Description: Cytoprotective activity against ischemia-hypoxia injury in rat H9c2 cells assessed as increase in cell viability at 0.01 uM by MTT assay relative to control.

Regarding `COc1cc2c(OC)cc3c(c2cc1OC)N(C)[C@@H](CC(C)=O)c1c2c(cc(OC)c1-3)OCO2`, the Activity in assay [1] came to 45.29%; in assay [2], 50.09%; in assay [3], 44.27%; in assay [4], 53.88%.
As to `COc1cc2c(OC)cc3c(c2cc1OC)N(C)C(CC(=O)CC(C)(C)O)c1c2c(cc(OC)c1-3)OCO2` (racemic), the Activity in assay [1] is 44.75%; in assay [2] it was 41.47%; in assay [3], 32.63%; in assay [4] it was 41.8%.
The matching figures for `COc1cc2c(OC)cc3c(c2cc1OC)N(C)[C@@H](CC(=O)C[C@H]1c2c4c(cc(OC)c2-c2cc(OC)c5cc(OC)c(OC)cc5c2N1C)OCO4)c1c2c(cc(OC)c1-3)OCO2`: 36.59%, 41.02%, 27.48% and 40.26%.
`COc1cc2c(OC)cc3c(c2cc1OC)N(C)[C@H](CC(=O)C[C@H]1c2c4c(cc(OC)c2-c2cc(OC)c5cc(OC)c(OC)cc5c2N1C)OCO4)c1c2c(cc(OC)c1-3)OCO2`: the Activity in assay [1] is reported as 44.26%; in assay [2], 50.56%; in assay [3], 44.75%.
For the compound `COc1cc2c(OC)cc3c(c2cc1OC)N(C)[C@H](CO)c1c2c(cc(OC)c1-3)OCO2`, the Activity in assay [1] is given as 50.74%; in assay [2], 46.01%; in assay [3] it was 36.62%; in assay [4], 41.38%.
For the compound `COc1cc2c(OC)cc3c(c2cc1OC)N(C)[C@H](CC(C)=O)c1c2c(cc(OC)c1-3)OCO2`, the Activity is listed as 37.74% in assay [1], 40.68% in assay [2], 29.1% in assay [3] and 42.15% in assay [4].
Take `COc1cc2c(OC)cc3c(c2cc1OC)N(C)[C@@H](CO)c1c2c(cc(OC)c1-3)OCO2`: the Activity in assay [1] was found to be 49.42%; in assay [2] it was 54.72%; in assay [3], 32.71%; in assay [4] it was 47.54%.
